Data published in patent US12677832B2, “Oxadiazole compounds for controlling or preventing phytopathogenic fungi” (PI INDUSTRIES LTD., priority 2019, dated 2026).

Assays:
[1] = tested on: Pyricularia oryzae; experiment: microbe, parasite or virus in culture; assay type: cell-based; details: 168 h, read-out: control
[2] = tested on: Alternaria solani; experiment: Alternaria solani (Early Blight of Tomato/Potato) radial growth on potato dextrose agar; assay type: cell-based; details: 168 h, radial growth after seven days compared to untreated control
[3] = tested on: Colletotrichum capsici; experiment: Colletotrichum capsici (Anthracnose) radial growth on potato dextrose agar; assay type: cell-based; details: Colletotrichum truncatum, 168 h, radial growth after seven days compared to untreated control
[4] = tested on: Phakopsora pachyrhizi; experiment: Phakopsora pachyrhizi Test in Soybean (preventive spray); assay type: in vivo; details: preventive spray on Soybean plants, inoculated one day after treatment, disease severity vs untreated control
Procedure: Example 7: Phakopsora pachyrhizi Test in Soybean Compounds were dissolved in 2% dimethyl sulfoxide/acetone and then mixed with water containing an emulsifier to a calibrated spray volume of 50 mL. This 50 mL spray solution was poured into spray bottles for further applications. To test the preventive activity of compounds, healthy young Soybean plants, raised in the greenhouse, were sprayed with the active compound preparation at the stated application rates inside the spray cabinets using hollow cone nozzles. One day after treatment, the plants were inoculated with a spore suspension containing 2×10^5Phakopsora pachyrhizi conidia. The inoculated plants were then kept in a greenhouse chamber at 22-24° C. temperature and 80-90% relative humidity for disease expression. A visual assessment of the compound's performance was carried out by rating the disease severity (0-100% scale) on treated plants 3, 7, 10 and 15 days after application. Efficacy (% control) of the compounds was calculated by comparing the disease rating in the treatment with the one of the untreated control. The sprayed plants were also assessed for plant compatibility by recording symptoms like necrosis, chlorosis and stunting.

[5] = tested on: Botrytis cinerea; experiment: Botrytis cinerea (Gray Mold) radial growth on potato dextrose agar; assay type: cell-based; details: 300 ppm; radial growth after seven days compared to untreated control
[6] = tested on: Fusarium culmorum; experiment: Fusarium culmorum (Foot Rot of Cereals) radial growth on potato dextrose agar; assay type: cell-based; details: 300 ppm; radial growth after seven days compared to untreated control
Procedure: Example 6: Fusarium culmorum (Foot Rot of Cereals)
Compounds were dissolved in 0.3% dimethyl sulfoxide and then added to potato dextrose agar medium just prior to dispensing it into petri dishes. 5 mL medium with the compound in the desired concentration was dispensed into 60 mm sterile petri-plates. After solidification each plate was seeded with a 5 mm size mycelial disc taken from the periphery of an actively growing virulent culture plate. Plates were incubated in growth chambers at 25° C. temperature and 60% relative humidity for seven days and then the radial growth was measured and compared to that of the untreated control.

For `O=C(C[S+]([O-])c1cccc(F)c1)c1ccc(-c2noc(C(F)(F)F)n2)cn1` (centres unmarked) [Compound 128, 2-((3-fluorophenyl)sulfinyl)-1-(5-(5-(trifluoromethyl)-1,2,4-oxadiazol-3-yl)pyridin-2-yl)ethan-1-one], the inhibition of growth at 300 ppm [1] was at least 70% and the inhibition of growth at 300 ppm [2] was at least 70%.

`O=C(CSc1ncn[nH]1)c1ccc(-c2noc(C(F)(F)F)n2)cc1` [Compound 149, 2-((1H-1,2,4-triazol-5-yl)thio)-1-(4-(5-(trifluoromethyl)-1,2,4-oxadiazol-3-yl)phenyl)ethan-1-one] was tested, and the inhibition of growth at 300 ppm [1] was at least 70%, the inhibition of growth at 300 ppm [3] was at least 70% and the inhibition of growth at 300 ppm [2] was at least 70%.

For `O=C(C[S+]([O-])Cc1ccccc1)c1ccc(-c2noc(C(F)(F)F)n2)cc1` (centres unmarked) [Compound 80, 2-(benzylsulfinyl)-1-(4-(5-(trifluoromethyl)-1,2,4-oxadiazol-3-yl)phenyl)ethan-1-one], the inhibition of growth at 300 ppm [1] was at least 70% and the inhibition of growth at 300 ppm [2] was at least 70%.

`O=C(COc1cccnc1)c1ccc(-c2noc(C(F)(F)F)n2)cc1` [Compound 21, 2-(pyridin-3-yloxy)-1-(4-(5-(trifluoromethyl)-1,2,4-oxadiazol-3-yl)phenyl)ethan-1-one] showed an inhibition of growth at 300 ppm [2] of at least 70% and a pest or weed control at 500 ppm [4] of at least 70%.

For `Cc1nnc(SCC(=O)c2ccc(-c3noc(C(F)(F)F)n3)cc2)o1` [Compound 150, 2-((5-methyl-1,3,4-oxadiazol-2-yl)thio)-1-(4-(5-(trifluoromethyl)-1,2,4-oxadiazol-3-yl)phenyl)ethan-1-one], the inhibition of growth at 300 ppm [1] was at least 70% and the inhibition of growth at 300 ppm [2] was at least 70%.

For `COc1ccc([S+]([O-])CC(=O)c2ccc(-c3noc(C(F)(F)F)n3)cn2)cc1` (centres unmarked) [Compound 129, 2-((4-methoxyphenyl)sulfinyl)-1-(5-(5-(trifluoromethyl)-1,2,4-oxadiazol-3-yl)pyridin-2-yl)ethan-1-one], the inhibition of growth at 300 ppm [3] was at least 70%.

With `O=C(CSc1ccncc1)c1ccc(-c2noc(C(F)(F)F)n2)cc1` [Compound 68, 2-(pyridin-4-ylthio)-1-(4-(5-(trifluoromethyl)-1,2,4-oxadiazol-3-yl)phenyl)ethan-1-one] the inhibition of growth at 300 ppm [2] was at least 70%.

In the case of `O=C(COc1ccccc1F)c1ccc(-c2noc(C(F)(F)F)n2)cn1` [Compound 114, 2-(2-fluorophenoxy)-1-(5-(5-(trifluoromethyl)-1,2,4-oxadiazol-3-yl)pyridin-2-yl)ethan-1-one], the inhibition of growth at 300 ppm [1] is reported as at least 70% and the control [5] is reported as at least 70%.

Molecule `O=C(COc1cc(Cl)cc(Cl)c1)c1ccc(-c2noc(C(F)(F)F)n2)cc1` [Compound 15, 2-(3,5-dichlorophenoxy)-1-(4-(5-(trifluoromethyl)-1,2,4-oxadiazol-3-yl)phenyl)ethan-1-one] has an inhibition of growth at 300 ppm [3] of at least 70% and a pest or weed control at 500 ppm [4] of at least 70%.

With `O=C(CNc1ccc(Cl)c(C(F)(F)F)c1)c1ccc(-c2noc(C(F)(F)F)n2)cc1` [Compound 140, 2-((4-chloro-3-(trifluoromethyl)phenyl)amino)-1-(4-(5-(trifluoromethyl)-1,2,4-oxadiazol-3-yl)phenyl)ethan-1-one] the inhibition of growth at 300 ppm [2] was at least 70% and the control [6] was at least 70%.

`CC(C)SCC(=O)c1ccc(-c2noc(C(F)(F)F)n2)cc1` [Compound 69, 2-(isopropylthio)-1-(4-(5-(trifluoromethyl)-1,2,4-oxadiazol-3-yl)phenyl)ethan-1-one] was tested, and the inhibition of growth at 300 ppm [1] was at least 70% and the inhibition of growth at 300 ppm [2] was at least 70%.

Molecule `O=C(COc1ccc(F)cc1F)c1ccc(-c2noc(C(F)(F)F)n2)cc1` [Compound 18, 2-(2,4-difluorophenoxy)-1-(4-(5-(trifluoromethyl)-1,2,4-oxadiazol-3-yl)phenyl)ethan-1-one] has an inhibition of growth at 300 ppm [2] of at least 70% and a pest or weed control at 500 ppm [4] of at least 70%.

`O=C(C[S+]([O-])c1c(Cl)cccc1Cl)c1ccc(-c2noc(C(F)(F)F)n2)cn1` (centres unmarked) [Compound 132, 2-((2,6-dichlorophenyl)sulfinyl)-1-(5-(5-(trifluoromethyl)-1,2,4-oxadiazol-3-yl)pyridin-2-yl)ethan-1-one] gave an inhibition of growth at 300 ppm [2] of at least 70%.

`O=C(CS(=O)(=O)c1ccncc1)c1ccc(-c2noc(C(F)(F)F)n2)cc1` [Compound 112, 2-(pyridin-4-ylsulfonyl)-1-(4-(5-(trifluoromethyl)-1,2,4-oxadiazol-3-yl)phenyl)ethan-1-one] was tested, and the inhibition of growth at 300 ppm [1] was at least 70% and the inhibition of growth at 300 ppm [2] was at least 70%.

Work on `O=C(C[S+]([O-])C1CCCC1)c1ccc(-c2noc(C(F)(F)F)n2)cn1` (centres unmarked) [Compound 133, 2-(cyclopentylsulfinyl)-1-(5-(5-(trifluoromethyl)-1,2,4-oxadiazol-3-yl)pyridin-2-yl)ethan-1-one] yielded an inhibition of growth at 300 ppm [1] of at least 70% and an inhibition of growth at 300 ppm [2] of at least 70%.

For `CN1CCN(CC(=O)c2ccc(-c3noc(C(F)(F)F)n3)cc2)CC1` [Compound 135, 2-(4-methylpiperazin-1-yl)-1-(4-(5-(trifluoromethyl)-1,2,4-oxadiazol-3-yl)phenyl)ethan-1-one], the inhibition of growth at 300 ppm [3] was at least 70%, the inhibition of growth at 300 ppm [2] was at least 70% and the pest or weed control at 500 ppm [4] was at least 70%.

With `O=C(CNc1ccc(F)c(F)c1)c1ccc(-c2noc(C(F)(F)F)n2)cc1` [Compound 27, 2-((3,4-difluorophenyl)amino)-1-(4-(5-(trifluoromethyl)-1,2,4-oxadiazol-3-yl)phenyl)ethan-1-one] the inhibition of growth at 300 ppm [2] was at least 70% and the pest or weed control at 500 ppm [4] was at least 70%.

Work on `O=C(CS(=O)(=O)c1nccs1)c1ccc(-c2noc(C(F)(F)F)n2)cc1` [Compound 107, 2-(thiazol-2-ylsulfonyl)-1-(4-(5-(trifluoromethyl)-1,2,4-oxadiazol-3-yl)phenyl)ethan-1-one] yielded an inhibition of growth at 300 ppm [3] of at least 70%.

`Cc1ccccc1NCC(=O)c1ccc(-c2noc(C(F)(F)F)n2)cc1` [Compound 146, 2-(o-tolylamino)-1-(4-(5-(trifluoromethyl)-1,2,4-oxadiazol-3-yl)phenyl)ethan-1-one] showed an inhibition of growth at 300 ppm [3] of at least 70%.

With `Cc1ccc(Cl)cc1OCC(=O)c1ccc(-c2noc(C(F)(F)F)n2)cc1` [Compound 17, 2-(5-chloro-2-methylphenoxy)-1-(4-(5-(trifluoromethyl)-1,2,4-oxadiazol-3-yl)phenyl)ethan-1-one] the inhibition of growth at 300 ppm [2] was at least 70% and the pest or weed control at 500 ppm [4] was at least 70%.

Work on `O=C(CNc1cccc(C(F)(F)F)c1)c1ccc(-c2noc(C(F)(F)F)n2)cc1` [Compound 141, 1-(4-(5-(trifluoromethyl)-1,2,4-oxadiazol-3-yl)phenyl)-2-((3-(trifluoromethyl)phenyl)amino)ethan-1-one] yielded an inhibition of growth at 300 ppm [3] of at least 70%.

Molecule `Cc1cccc(NCC(=O)c2ccc(-c3noc(C(F)(F)F)n3)cc2)c1` [Compound 144, 2-(m-tolylamino)-1-(4-(5-(trifluoromethyl)-1,2,4-oxadiazol-3-yl)phenyl)ethan-1-one] has an inhibition of growth at 300 ppm [3] of at least 70%.

For `Cc1ccccc1OCC(=O)c1ccc(-c2noc(C(F)(F)F)n2)cc1` [Compound 39, 2-(o-tolyloxy)-1-(4-(5-(trifluoromethyl)-1,2,4-oxadiazol-3-yl)phenyl)ethan-1-one], the inhibition of growth at 300 ppm [2] was at least 70%.

With `O=C(CSC1CCCC1)c1ccc(-c2noc(C(F)(F)F)n2)cn1` [Compound 119, 2-(cyclopentylthio)-1-(5-(5-(trifluoromethyl)-1,2,4-oxadiazol-3-yl)pyridin-2-yl)ethan-1-one] the inhibition of growth at 300 ppm [1] was at least 70% and the inhibition of growth at 300 ppm [2] was at least 70%.

`CC(C)(C)[S+]([O-])CC(=O)c1ccc(-c2noc(C(F)(F)F)n2)cc1` (centres unmarked) [Compound 91, 2-(tert-butylsulfinyl)-1-(4-(5-(trifluoromethyl)-1,2,4-oxadiazol-3-yl)phenyl)ethan-1-one] was tested, and the inhibition of growth at 300 ppm [1] was at least 70% and the inhibition of growth at 300 ppm [2] was at least 70%.

For `COc1ccc(NCC(=O)c2ccc(-c3noc(C(F)(F)F)n3)cc2)cc1` [Compound 145, 2-((4-methoxyphenyl)amino)-1-(4-(5-(trifluoromethyl)-1,2,4-oxadiazol-3-yl)phenyl)ethan-1-one], the inhibition of growth at 300 ppm [1] was at least 70% and the inhibition of growth at 300 ppm [3] was at least 70%.

`C=CCSCC(=O)c1ccc(-c2noc(C(F)(F)F)n2)cc1` [Compound 61, 2-(allylthio)-1-(4-(5-(trifluoromethyl)-1,2,4-oxadiazol-3-yl)phenyl)ethan-1-one] gave an inhibition of growth at 300 ppm [2] of at least 70%.
